Source: patent US4549022A, “4-Pyridone-3-carboxylic acid derivatives” (Hoffmann-La Roche Inc., priority 1978, dated 1985)
In brackets after ≈: the same amount, converted by molar mass. Like-named read-outs stand apart in the source and are kept apart here.

What was measured:
LD50 (acute toxicity) = assay type: in vivo
central nervous system = assay: Turning rat test (minimum active dosage); assay type: in vivo
Escherichia coli [1] = assay: Escherichia coli in vitro MIC (Minimum Inhibitory Concentration); assay type: cell-based
Escherichia coli [2] = assay: Escherichia coli in vivo (mouse) ED50
[3] = vs d-amphetamine and d-methamphetamine, see Table 1

SMILES | MIC (Escherichia coli [1]; read-out: MIC) [µg/mL] | ED50 (Escherichia coli [2]; po, read-out: ED50) [mg/kg] | other results
CCn1cc(C(=O)O)c(=O)cc1-c1ccccc1 [1-ethyl-4-oxo-6-phenyl-1,4-dihydronicotinic acid] |  |  | LD50 (LD50 (acute toxicity); in vivo, po): 300 to 600 mg/kg; LD50 compared with d-amphetamine and d-methamphetamine (LD50 (acute toxicity); [3]): substantially lower LD50; LD50 compared with nomifensin (LD50 (acute toxicity); vs nomifensin, see Table 1): about the same LD50; Turning rat test minimum active dosage (central nervous system; Arch. int. Pharmacodyn. Ther. 217, 118-130 (1975)): 1; activity compared with d-amphetamine and d-methamphetamine (central nervous system; [3]): about the same strong activity; activity compared with nomifensin (central nervous system; vs nomifensin, see Table 1): substantially superior activity to nomifensin
CCn1cc(C(=O)O)c(=O)cc1-c1ccc2c(c1)OCO2 [1-ethyl-6-(3,4-methylenedioxyphenyl)-4-oxo-1,4-dihydronicotinic acid] | 2.5 (≈ 8.7 µM) | > 100 | 
CCn1cc(C(=O)O)c(=O)cc1-c1ccc(NC)c(C)c1 [1-ethyl-6-(3-methyl-4-methylaminophenyl)-4-oxo-1,4-dihydronicotinic acid] | 0.6 (≈ 2.1 µM) | 3.5 | 
CCn1cc(C(=O)O)c(=O)cc1-c1ccc(OC)cc1 [1-ethyl-6-(4-methoxyphenyl)-4-oxo-1,4-dihydronicotinic acid] | 2.5 (≈ 9.15 µM) | > 100 | 
CCn1cc(C(=O)O)c(=O)cc1-c1ccc(SC)cc1 [1-ethyl-6-(4-methylthiophenyl)-4-oxo-1,4-dihydronicotinic acid] | 2.5 (≈ 8.64 µM) | 82 | 
CCn1cc(C(=O)O)c(=O)cc1-c1ccc(N2CCCC2)cc1 [1-ethyl-6-(4-pyrrolidinophenyl)-4-oxo-1,4-dihydronicotinic acid] | 1.2 (≈ 3.84 µM) | 19 | 
CCn1cc(C(=O)O)c(=O)cc1-c1ccc(-n2cccc2)cc1 [1-ethyl-6-(4-pyrrolophenyl)-4-oxo-1,4-dihydronicotinic acid] |  |  | MIC (Escherichia coli [1]): 1.2 µg/mL (≈ 3.89 µM); ED50 (Escherichia coli [2]; p.o.): 34 mg/kg
CCn1cc(C(=O)O)c(=O)cc1-c1ccc(N(C)C)cc1 [1-ethyl-6-[4-(dimethylamino)-phenyl]-4-oxo-1,4-dihydronicotinic acid] | 0.6 (≈ 2.1 µM) | 8.8 | 
O=C1CN(/N=C/c2ccc([N+](=O)[O-])o2)C(=O)N1 [Nitrofurantoin, reference compound] | 5 (≈ 21 µM) | > 100 | 
